Legend:
[1] = test system: infertilitas patients with three or more consecutive miscarriages, stillbirths, or intrauterine fetal growth retardations; test: Tacrolimus treatment of infertilitas patients from establishment of pregnancy until delivery (Example 2); format: in vivo, human
Experimental: These patients were a group of patients for whom clear findings of abnormality related to infertility were not recognized with a serological examination that had been performed in advance.
The patients were evaluated through a transvaginal ultrasound examination, a Fallopian tube patency test, and hysteroscopy before an index ART cycle. Among the participants, no one had submucosal myoma, endometrial polyps, intrauterine adhesion, congenital abnormalities in the uterus, or hydrosalpinx. […] Any women who had experienced miscarriage in the previous IVF cycle, who had received an IVF cycle, or who had received vaccination, all within three months, were excluded from the subjects. Any women with acquired or congenital thrombophilia were excluded from the subjects.
The analysis was carried out according to the method described in Example 1. However, the determination of the Th1/Th2 cell ratio in a patient was carried out immediately after establishment of pregnancy (the day of confirming establishment of pregnancy). The level of the Th1/Th2 cell ratio was determined according to the average value+1 standard deviation method in the same manner as in Example 1, and a Th1/Th2 cell ratio that was equal to 10.3 or higher than that was classified as an increased Th1/Th2 cell ratio.
All of the eleven patients were subjected to treatment with tacrolimus in the same manner as in Example 1, except for the duration of administration. […] The duration of administration of tacrolimus was from the time point immediately after establishment of pregnancy was confirmed by a pregnancy test and the Th1/Th2 cell ratio was checked, until the day of delivery, in all cases.
The treatment was carried out in the same manner as in Example 1.
The analysis was carried out in the same manner as in Example 1.

[2] = test system: women with a history of or susceptible to pregnancy-induced hypertension syndrome; test: Tacrolimus treatment of women at risk of pregnancy-induced hypertension syndrome (Example 3); format: in vivo, human
Experimental: Once pregnancy-induced hypertension syndrome develops, the possibility of experiencing repeated onset in the subsequent gestations is very high. The patients were evaluated through a transvaginal ultrasound examination, a Fallopian tube patency test, and hysteroscopy before an index ART cycle. […] Any women who had experienced miscarriage in the previous IVF cycle, who had received an IVF cycle, or who had received vaccination, all within three months, were excluded from the subjects. Any women with acquired or congenital thrombophilia were excluded from the subjects. All the patients were subjected to treatment with tacrolimus in the same manner as in Example 2. The dose of tacrolimus was 1 mg to 3 mg per day. The duration of administration of tacrolimus was from the time point immediately after establishment of pregnancy was confirmed by a pregnancy test, until the day of delivery, in all cases. In Case 1 and Case 3 described below, 3 mg of tacrolimus per day was administered everyday from the time point immediately after establishment of pregnancy was confirmed and until the second trimester of pregnancy, and 2 mg of tacrolimus per day was administered everyday from the third trimester of pregnancy until the delivery. In Case 2 described below, 2 mg of tacrolimus per day was administered everyday from the time point immediately after establishment of pregnancy was confirmed and until the delivery. The treatment was carried out in the same manner as in Example 2. The effects of administering tacrolimus were evaluated on the basis of whether the patients satisfactorily maintained the state of pregnancy without developing pregnancy-induced hypertension syndrome at predetermined time points between the second trimester and the third trimester of pregnancy. Cases in which the evaluation has been roughly completed are as follows.

[3] = test system: kidney transplant recipients with tacrolimus exposure during pregnancy; conditions: cited from earlier work
[4] = infertilitas patients n = 11, tacrolimus 1-3 mg per day from confirmation of pregnancy until delivery
[5] = 236 babies born from kidney transplant recipients with tacrolimus exposure during pregnancy
[6] = kidney transplant recipients with tacrolimus exposure during pregnancy

## C=CCC1/C=C(\C)CC(C)CC(OC)C2OC(O)(C(=O)C(=O)N3CCCCC3C(=O)OC(/C(C)=C/C3CCC(O)C(OC)C3)C(C)C(O)CC1=O)C(C)CC2OC (centres unmarked) [tacrolimus, 17-Allyl-1,14-dihydroxy-12-[2-(4-hydroxy-3-methoxycyclohexyl)-1-methylvinyl]-23,2 5-dimethoxy-13,19,21,27-tetramethyl-11,28-dioxa-4-azatricyclo[22.3.1.04,9]octacos-18-ene-2,3,10,16-tetraone]
[1]; Full term birth (8 babies)
  APGAR Score 1 minute: 8.0 ± 1.0
  APGAR Score 5 minute: 9.0 ± 0.5
  Birth weight (gm): 3149 ± 234 gm
  Complications of mother: 0
  Complications of newborn baby: 0
  Number of gestational days: 279.3 ± 6.0 days
  Umbilical cord blood pH: 7.3 ± 0.12
[1]; Premature birth case
  APGAR Score 1 minute: 6
  APGAR Score 5 minute: 8
  Birth weight (gm): 748 gm
  Number of gestational days: 208 days
  Umbilical cord blood pH: 7.304
[1]; Premature birth case, Low birth weight baby
  Complications of newborn baby: 1 (Low birth
[1]; Premature birth case, Pregnancy-induced hypertension
  Complications of mother: 1 (Pregnancy-
[1]; [4]
  Number of newborn babies (n): Miscarriage: 2 n
  Number of newborn babies (n): Premature birth: 1 n
[2]; Case 1 (intrauterine fetal death in week 38 in previous gestation), 3 mg per day until second trimester, 2 mg per day from third trimester until delivery
  increase in blood pressure: did not experience an increase in blood pressure
[2]; Case 1, 3 mg per day until second trimester, 2 mg per day from third trimester until delivery
  gave birth to a healthy baby in week: 39 week
[2]; Case 2 (twin pregnancy with infertilitas and positive anti-phosphorus antibody), 2 mg per day until delivery
  increase in blood pressure: did not experience an increase in blood pressure
[2]; Case 2, 2 mg per day until delivery, premature rupture of the membrane caused by cough, premature birth of twin
  gave birth to a healthy baby in week: 35 week
[2]; Case 3 (intrauterine fetal death in week 32 in previous gestation), 3 mg per day until second trimester, 2 mg per day from third trimester
  edema and tendency of blood pressure increase: without edema and without a tendency of blood pressure increase
[2]; Case 3, 3 mg per day until second trimester, 2 mg per day from third trimester
  currently passing week of pregnancy: 34 week
[3]; [5]
  neonatal death rate: 2%
  still born rate: 2%
[3]; [6]
  obstetrical complications: diabetes during pregnancy: 8%
  obstetrical complications: hypertension: 56%
  obstetrical complications: infection: 22%
  obstetrical complications: preeclampsia: 32%
  obstetrical complications: spontaneous abortion: 26%

From patent publication US12576070B2, “Medicine for improving state of pregnancy, and use thereof” (priority 2014, dated 2026)
